The values below come from patent publication US20220233640A1, “GALANIN- AND GALANIN RECEPTOR BASED COMPOUNDS FOR THE TREATMENT OF LIVER FIBROSIS” (United State Govermment as represented by the Department of …, priority 2019, published 2022).

Ends that are not written are not given here.

The series relates to FVBN and Mdr2KO mice. The series can be described thus: Non-hepatic effects: serum biomarkers of heart (CK) and kidney (CREA, BUN), IDEXX assay system. The class given is in vivo, mouse. On the set-up: CREA / BUN: unit not given here. Conditions: for effects on heart (CK) and kidneys (CREA, BUN): FVBN and Mdr2KO mice, vs vehicle-treated mice; for BUN / CK / CREA: serum. How it is done:
FVB/N (FVBN) and Mdr2^−/− (Mdr2KO) mice were purchased from Jackson Laboratory (Bar Harbor, Me.) and maintained in a temperature-controlled environment at 20-22° C. with a 12:12 hours light-dark cycle, having free access to food and drinking water. All animal procedures were performed in accord with the guidelines of Baylor Scott and White (Temple, Tex.) Institutional Animal Care and Use Committee, with approved protocols. In time-course experiments, 1 week, 1 months, 2 months and 4 months old male and female FVBN and Mdr2KO mice were used. In experiments designed to measure the effect of various agonists and antagonists of Gal receptors, on the extent of liver fibrosis in Mdr2KO mice, 2 months old, male and female Mdr2KO mice were used, as well as FVBN mice as negative controls. Four to five animals in each group of age/gender/type (FVBN or Mdr2KO) were used. In parallel, an equal number of 2 months old, male and female FVBN and MDR2KO mice were treated with vehicle only (saline or 20% DMSO) via the same type of minipumps. Galanin, M871 and M40 peptides were dissolved in saline or 20% DMSO in saline, depending on their solubility, and administered by using Alzet osmotic minipumps (Cupertino, Calif.). Galanin, M871 and M40, were administered at a rate of 4 nmol/Kg/day (mice weights being 25-30 g). Vivo-morpholino oligos including two sequences specific to mouse GalR1, and one mouse GalR1 mismatch control, were administered at a rate of 25 μg/mouse/day, for 14 days, after which the mice were euthanized with euthasol, followed by exsanguination and collection of liver tissue.
Serum alanine aminotransferase (ALT), aspartate aminotransferase (AST), alkaline phosphatase (ALKP), CREA, BUN and CK were measured using the IDEXX Catalyst One instrument from IDEXX Laboratories, Inc (Houston, Tex.).
To investigate possible adverse effects of GalR antagonists on vital organs other than the liver, blood biomarkers of the heart (creatine kinase, CK) and kidneys (creatinine, CREA; blood urea nitrogen, BUN) were investigated in FVBN and Mdr2KO mice when treated with GalR1 vivo morpholino, M871, and M40 as compared to vehicle-treated mice.
Referring to Table 2, non-hepatic effects of GalR1 vivo morpholino, M871, and M40 Gal receptor antagonists on FVBN mice are shown. Several serum biomarkers including creatine kinase (CK) for heart, creatinine (CREA) and blood urea nitrogen (BUN) for kidney, were assessed by using IDEXX assay system. Normal range: CK, 68-1070 U/L; CREA, […]; BUN, […].

Consider WTLNSAGYLLGPEHPPPALALA-NH2 [M871], for which the “effects on heart (CK) and kidneys (CREA, BUN)” value is recorded as “no effects on the heart or kidneys”. For the same substance, where the note is “Female FVBN mice”, the BUN is listed as 26.55 ± 1.67, the CK is listed as 136.67 ± 36.67 U/L and the CREA was determined as 0.79 ± 0.041. For the setting “Female Mdr2KO mice”, this substance gave a BUN of 23.33 ± 0.49, a CK of 213.33 ± 103.49 U/L and a CREA of 0.68 ± 0.012. Where the note is “Male FVBN mice”, this substance gave a BUN of 26.97 ± 0.83, a CK of 99.67 ± 0.88 U/L and a CREA of 0.81 ± 0.063. For the setting “Male Mdr2KO mice”, this substance came in with a BUN of 23.04 ± 0.92, a CK of 230.00 ± 52.92 U/L and a CREA of 0.67 ± 0.042.

As for GWTLNSAGYLLGPPPALALA-NH2 [M40], the “effects on heart (CK) and kidneys (CREA, BUN)” value was “no effects on the heart or kidneys”. For the setting “Female FVBN mice”, this substance yielded a CK of 151.30 ± 19.90 U/L. This substance showed a CK (Female Mdr2KO mice) of 163.33 ± 63.33 U/L. The same substance gave a CK (Male FVBN mice) of 190.00 ± 58.59 U/L. Also, where the note is “Male Mdr2KO mice”, the CK worked out at 103.33 ± 3.33 U/L.
